According to patent publication US20240150358A1, “PURINES AND METHODS OF THEIR USE” (Kineta, Inc., priority 2020, published 2024):
pIC50: −log10 of the molar value. Like-named read-outs stand apart in the source and are kept apart here.

What was measured:
[1] = target: full-length human PIKFYVE (Homo sapiens (Human), UniProt Q9Y2I7, L932S/Q1183K/Q995L/S1033A/S696N/T998S); assay: PIKfyve biochemical assay (ADP-Glo Kinase assay, Carna Biosciences)
Procedure: (§1) PIKfyve Biochemical Assay. The biochemical PIKFyve inhibition assays were run by Carna Biosciences according to proprietary methodology based on the Promega ADP-Glo™ Kinase assay. […] GST-PIKFYVE was purified by using glutathione sepharose chromatography and used in an ADP-Glo™ Kinase assay (Promega). Reactions were set up by adding the test compound solution, substrate solution, ATP solution and kinase solution, each at 4× final concentrations. Reactions were prepared with assay buffer (50 mM MOPS, 1 mM DTT, pH7.2), mixed, and incubated in black 384 well polystyrene plates for 1 hour at room temperature. ADPGlo™ reagent was then added for 40 minutes, followed by kinase detection reagent for an additional 40 minutes. The kinase activity was evaluated by detecting relative light units on a luminescence plate reader. Samples were run in duplicate from 10 μM to 3 nM. […] IC50 values were calculated from concentration vs % inhibition curves by fitting to a four-parameter logistic curve.
as §1, with “The” for “PIKfyve Biochemical Assay. The”, “ADP-Glo™” for “ADPGlo™”, “uM” for “μM”, “curve. […]” for “curve.”

hPIKfyve = hPIKfyve (Homo sapiens (Human), UniProt Q9Y2I7); assay: NanoBRET TE Intracellular Kinase Assay, K-8, in HEK293 cells transfected with PIKFYVE-NanoLuc Fusion Vector; type: cell-based; conditions: 2 hours, tracer displacement, read-out: hPIKfyve BRET IC50
hPIKfyve, sequence (Q9Y2I7 whole entry, the tested form may be a part): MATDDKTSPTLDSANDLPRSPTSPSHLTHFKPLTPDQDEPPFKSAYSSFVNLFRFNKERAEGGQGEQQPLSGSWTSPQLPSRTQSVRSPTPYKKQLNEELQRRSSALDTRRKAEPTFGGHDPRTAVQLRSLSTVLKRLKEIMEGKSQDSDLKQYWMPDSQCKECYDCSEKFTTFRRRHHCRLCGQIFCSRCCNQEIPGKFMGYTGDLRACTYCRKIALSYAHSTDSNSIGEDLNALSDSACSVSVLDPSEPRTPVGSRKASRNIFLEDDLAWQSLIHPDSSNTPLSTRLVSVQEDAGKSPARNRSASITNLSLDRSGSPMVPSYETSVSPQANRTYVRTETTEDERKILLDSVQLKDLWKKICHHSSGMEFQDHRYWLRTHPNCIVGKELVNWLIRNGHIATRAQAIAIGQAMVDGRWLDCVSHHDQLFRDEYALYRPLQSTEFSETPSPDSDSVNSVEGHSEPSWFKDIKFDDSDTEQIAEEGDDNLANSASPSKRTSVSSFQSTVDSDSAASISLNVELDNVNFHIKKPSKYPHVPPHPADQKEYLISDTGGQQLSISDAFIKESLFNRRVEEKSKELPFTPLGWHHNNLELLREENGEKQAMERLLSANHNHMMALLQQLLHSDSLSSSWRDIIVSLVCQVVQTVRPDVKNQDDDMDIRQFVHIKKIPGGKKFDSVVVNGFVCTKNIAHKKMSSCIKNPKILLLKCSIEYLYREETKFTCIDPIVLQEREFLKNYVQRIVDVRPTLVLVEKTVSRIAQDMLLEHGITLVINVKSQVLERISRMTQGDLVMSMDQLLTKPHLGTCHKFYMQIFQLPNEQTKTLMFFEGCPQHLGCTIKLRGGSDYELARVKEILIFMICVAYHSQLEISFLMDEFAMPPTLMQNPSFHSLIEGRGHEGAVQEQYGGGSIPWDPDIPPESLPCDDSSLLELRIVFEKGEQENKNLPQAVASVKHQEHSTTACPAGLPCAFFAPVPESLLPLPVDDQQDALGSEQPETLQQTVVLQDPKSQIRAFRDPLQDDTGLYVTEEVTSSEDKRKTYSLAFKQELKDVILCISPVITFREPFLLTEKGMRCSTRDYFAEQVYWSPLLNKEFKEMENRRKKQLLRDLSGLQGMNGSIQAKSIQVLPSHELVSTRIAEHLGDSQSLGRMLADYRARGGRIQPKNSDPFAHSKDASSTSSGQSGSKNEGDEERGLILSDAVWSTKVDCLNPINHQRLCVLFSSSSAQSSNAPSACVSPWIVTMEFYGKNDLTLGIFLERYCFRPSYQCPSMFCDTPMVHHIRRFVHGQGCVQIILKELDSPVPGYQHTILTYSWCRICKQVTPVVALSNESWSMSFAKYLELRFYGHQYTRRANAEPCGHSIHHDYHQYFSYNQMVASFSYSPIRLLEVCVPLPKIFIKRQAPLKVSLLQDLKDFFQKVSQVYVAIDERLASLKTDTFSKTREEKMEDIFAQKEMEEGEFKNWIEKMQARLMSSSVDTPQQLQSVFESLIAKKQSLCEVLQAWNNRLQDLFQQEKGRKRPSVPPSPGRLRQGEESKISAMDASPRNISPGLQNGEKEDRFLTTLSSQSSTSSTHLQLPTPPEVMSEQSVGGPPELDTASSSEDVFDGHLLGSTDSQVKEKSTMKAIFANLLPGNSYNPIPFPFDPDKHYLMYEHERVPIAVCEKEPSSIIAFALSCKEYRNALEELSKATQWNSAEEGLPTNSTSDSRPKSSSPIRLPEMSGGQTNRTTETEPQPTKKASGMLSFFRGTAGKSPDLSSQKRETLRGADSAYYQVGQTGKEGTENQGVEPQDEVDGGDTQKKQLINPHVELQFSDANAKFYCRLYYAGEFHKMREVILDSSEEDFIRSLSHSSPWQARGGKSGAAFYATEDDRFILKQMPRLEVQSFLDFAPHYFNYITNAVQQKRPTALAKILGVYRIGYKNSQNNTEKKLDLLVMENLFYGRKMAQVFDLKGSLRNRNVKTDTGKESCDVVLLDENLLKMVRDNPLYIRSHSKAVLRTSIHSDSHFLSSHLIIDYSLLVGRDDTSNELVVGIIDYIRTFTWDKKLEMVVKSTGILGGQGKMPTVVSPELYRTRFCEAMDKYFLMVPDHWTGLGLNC
Procedure: NanoBRET™ TE Intracellular Kinase Assay, K-8 (Promega) Cell-Based Assay. Intracellular inhibition of PIKfyve was assayed using Promega's NanoBRET™ TE Intracellular Kinase Assay, K-8 according to manufacturer's instructions. A dilution series of test compounds was added for 2 hours to HEK293 cells transfected for a minimum of 20 hours with PIKFYVE-NanoLuc® Fusion Vector (Promega) containing a full-length PIKfyve according to manufacturer's specifications in a 96-well plate. Kinase activity was detected by addition of a NanoBRET™ tracer reagent, which was a proprietary PIKfyve inhibitor appended to a fluorescent probe (BRET, bioluminescence resonance energy transfer). Test compounds were tested at concentrations of 10, 3, 1, 0.3, 0.1, 0.03, 0.01, 0.003 μM. BRET signals were measured by a GloMax®Discover Multimode Microplate Reader (Promega) using 0.3 sec/well integration time, 450BP donor filter and 600LP acceptor filters. Active test compounds that bound PIKfyve and displaced the tracer reduced BRET signal. IC50 values were then calculated by fitting the data to the normalized BRET ratio.

[2] = test system: PIKFYVE TDP-43 yeast strain; assay: Propidium iodide flow cytometry viability assay, PIKFYVE TDP-43 yeast strain; type: cell-based; conditions: for pIC50: reduction in PI-positive cells, values plotted in FIG. 7; for PIKfyve TDP-43 (active/inactive): yeast viability, 15 μM to 0.11 μM
Description: (§2) Generation of TDP-43 yeast model expressing human PIKfyve. Human PIKFYVE (“entry clone”) was cloned into pAG416GPDccdB (“destination vector”) according to standard Gateway cloning protocols (Invitrogen, Life Technologies). The resulting pAG416GPD-PIKFYVE plasmids were amplified in E. coli and plasmid identity confirmed by restriction digest and Sanger sequencing. Lithium acetate/polyethylene glycol-based transformation was used to introduce the above PIKFYVE plasmid into a BY4741 yeast strain auxotrophic for the ura3 gene and deleted for two transcription factors that regulate the xenobiotic efflux pumps, a major efflux pump, and FAB1, the yeast ortholog of PIKFYVE (MATa, snq2::KILeu2; pdr3::Klura3; pdr1::NATMX; fab1::G418R, his3; leu2; ura3; met15; LYS2+) (FIG. 2). Transformed yeast were plated on solid agar plates with complete synthetic media lacking uracil (CSM-ura) and containing 2% glucose. Individual colonies harboring the control or PIKFYVE TDP-43 plasmids were recovered. A plasmid containing wild-type TDP-43 under the transcriptional control of the GAL1 promoter and containing the hygromycin-resistance gene as a selectable marker was transformed into the fab/::G418R pAG416GPD-PIKFYVE yeast strain (FIG. 1). Transformed yeast were plated on CSM-ura containing 2% glucose and […] after overnight recovery in media lacking antibiotic. Multiple independent isolates were further evaluated for cytotoxicity and TDP-43 expression levels.
(§3) Viability Assay. A control yeast strain with the wild-type yeast FAB1 gene and TDP-43 (“FAB1 TDP-43”, carries empty pAG416 plasmid), and the “PIKFYVE TDP-43” yeast strain, were assessed for toxicity using a propidium iodide viability assay. Both yeast strains were transferred from solid CSM-ura/2% glucose agar plates into 3 mL of liquid CSM-ura/2% glucose media for 6-8 hours at 30° C. with aeration. Yeast cultures were then diluted to an optical density at 600 nm wavelength (OD600) of 0.005 in 3 mL of CSM-ura/2% raffinose and grown overnight at 30° C. with aeration to an OD600 of 0.3-0.8. Log-phase overnight cultures were diluted to OD600 of 0.005 in CSM-ura containing either 2% raffinose or galactose and 150 μL dispensed into each well of a flat bottom 96-well plates. Compounds formulated in 100% dimethyl sulfoxide (DMSO) were serially diluted in DMSO and 1.5 μL diluted compound transferred to the 96-well plates using a multichannel pipet. Wells containing DMSO alone were also evaluated as controls for compound effects. Tested concentrations ranged from 15 μM to 0.11 μM. Cultures were immediately mixed to ensure compound distribution and covered plates incubated at 30° C. for 24 hours in a stationary, humified incubator.
(§4) Upon the completion of incubation, cultures were assayed for viability using propidium iodide (PI) to stain for dead/dying cells. A working solution of PI was made where, for each plate, 1 μL of 10 mM PI was added to 10 mL of CSM-ura (raffinose or galactose). The final PI solution ([…]) was dispensed into each well of a new round bottom 96-well plate. The overnight 96-well assay plate was then mixed with a multichannel pipet and 50 μL transferred to the PI-containing plate. This plate was then incubated for 30 minutes at 30° C. in the dark. A benchtop flow cytometer (Miltenyi MACSquant) was then used to assess red fluorescence (B2 channel), forward scatter, and side scatter (with following settings: gentle mix, high flow rate, fast measurement, 10,000 events). Intensity histograms were then gated for “PI-positive” or “PI-negative” using the raffinose and galactose cultures treated with DMSO as controls. The DMSO controls for raffinose or galactose-containing cultures were used to determine the window of increased cell death and this difference set to 100. All compounds were similarly gated and then compared to this maximal window to establish the percent reduction in PI-positive cells.

FAB1 TDP-43 yeast strain = assay: Propidium iodide flow cytometry viability assay, control FAB1 TDP-43 yeast strain; type: cell-based; conditions: 15 μM to 0.11 μM
Description: as §2, §3, §4

[3] = ADP-Glo, GST-PIKFYVE, 10 μM to 3 nM, read-out: hPIKfyve IC50
[4] = values plotted in FIG. 7, read-out: PIKFYVE Biochemistry (IC50)
[5] = ADP-Glo with full-length PIKfyve, read-out: PIKfyve IC50

full-length human PIKFYVE, sequence (Q9Y2I7 whole entry S696N/L932S/Q995L/T998S/S1033A/Q1183K): as the sequence (Q9Y2I7 whole entry, the tested form may be a part) above, with S696N, L932S, Q995L, T998S, S1033A, Q1183K counted along it

Row | SMILES | pIC50 [1, 3] | pIC50 (hPIKfyve) | pIC50 ([2]; Saccharomyces cerevisiae) | further results
1 | Cn1c(-c2ccncc2)nc2c(N3CCOCC3)nc(-c3ccnc(-c4ccccc4)n3)nc21 [Compound 1] | 7.00 to 8.00 | 7.00 to 8.00 |  | 
2 | Cc1cccc(/C=N/Nc2nc(N3CCOCC3)c3nc(-c4ccncc4)n(C)c3n2)c1 [drawing 168] |  |  |  | pIC50 [1, 4]: 9.00; pIC50 [2]: 5.86
3 | Cc1cccc(/C=N/Nc2nc(N3CCOCC3)c3nc(-c4ccncc4)n(C)c3n2)c1 [Compound 52, (E)-4-(9-methyl-2-(2-(3-methylbenzylidene)hydrazineyl)-8-(pyridin-4-yl)-9H-purin-6-yl)morpholine] | > 8.00 | > 8.00 |  | 
4 | Cc1cccc(/C=N/Nc2cc(N3CCOCC3)nc(OCCc3ccc(CN)cc3)n2)c1 |  |  |  | pIC50 [1, 5]: 7.92; FAB1 TDP-43 (active/inactive) (FAB1 TDP-43 yeast strain): Inactive; PIKfyve TDP-43 (active/inactive) [2]: Active
5 | CN1CCC(c2ccn(-c3nc(N4CCOCC4)c4nc(-c5ccncc5)n(C)c4n3)n2)C1 (centres unmarked) [Compound 37] | 6.00 to 7.00 | 5.00 to 6.00 |  | 
6 | Cc1cccc(/C=N/Nc2nc(N3CCOCC3)c3ncccc3n2)c1 |  |  | 5.09 | 
7 | Cc1cccc(/C=N/Nc2cc(N3CCOCC3)nc(OCCc3ccccn3)n2)c1 |  |  |  | FAB1 TDP-43 (active/inactive) (FAB1 TDP-43 yeast strain): Inactive; PIKfyve TDP-43 (active/inactive) [2]: Inactive
8 | N#Cc1cc(N2CCOCC2)n2nc(-c3ccncc3)cc2n1 |  |  |  | pIC50 [1, 5]: < 5.00; FAB1 TDP-43 (active/inactive) (FAB1 TDP-43 yeast strain): Inactive; PIKfyve TDP-43 (active/inactive) [2]: Inactive
9 | Cc1cccc(/C=N/Nc2nc(N3CCOCC3)c3nc(-c4ccncc4)n(C)c3n2)c1 [drawing 177] |  |  |  | pIC50 [1, 4]: 8.30; pIC50 [2]: 5.33
10 | c1cc(-c2cc3nc(C4CNC4)nc(N4CCOCC4)n3n2)ccn1 |  |  | < 4.82 | pIC50 [1, 4]: 5.10
11 | CN(C)c1cc(N2CCOCC2)n2nc(-c3ccncc3)cc2n1 |  |  |  | FAB1 TDP-43 (active/inactive) (FAB1 TDP-43 yeast strain): Inactive; PIKfyve TDP-43 (active/inactive) [2]: Inactive
12 | c1ccc(C2CN(c3nc(N4CCOCC4)n4nc(-c5ccncc5)cc4n3)CCN2)cc1 (centres unmarked) |  |  | < 4.82 | pIC50 [1, 4]: 5.58
13 | Fc1cccc(-c2ccnn2-c2nc(N3CCOCC3)c3ncccc3n2)c1 |  |  | 5.24 | pIC50 [1, 4]: < 5.00
14 | c1cc(-c2nc3c(N4CCOCC4)nc(-n4ccc(C5CCOCC5)n4)nc3[nH]2)ccn1 [Compound 6] | 7.00 to 8.00 | 7.00 to 8.00 |  | 
15 | Cn1c(-c2ccncc2)nc2c(N3CCOCC3)nc(-n3cccn3)nc21 [Compound 47] | 7.00 to 8.00 | 6.00 to 7.00 |  | 
16 | Cc1cccc(/C=N/Nc2nc(N3CCOCC3)c3nc(-c4ccncc4)[nH]c3n2)c1 [Compound 119] | > 8.00 | > 8.00 |  | 
17 | Cc1cccc(/C=N/Nc2cc(N3CCOCC3)n3nc(-c4ccncc4)cc3n2)c1 [drawing 161] |  |  |  | FAB1 TDP-43 (active/inactive) (FAB1 TDP-43 yeast strain): Inactive; PIKfyve TDP-43 (active/inactive) [2]: Active
18 | Oc1cc(C2CCOCC2)nn1-c1cc(N2CCOCC2)n2nc(-c3ccncc3)cc2n1 |  |  | 5.04 | 
19 | Cc1cccc(/C=N/Nc2cc(N3CCOCC3)n3nc(-c4ccncc4)cc3n2)c1 [drawing 163] |  |  |  | FAB1 TDP-43 (active/inactive) (FAB1 TDP-43 yeast strain): Inactive; PIKfyve TDP-43 (active/inactive) [2]: Active
20 | c1ccc(N2CCc3c(OCc4cccnc4)nc(N4CCOCC4)nc32)cc1 |  |  | 5.57 | 
21 | Cn1c(-c2ccncc2)nc2c(N3CCOCC3)nc(-c3noc(-c4ccccc4)n3)nc21 [Compound 32] | 7.00 to 8.00 | 6.00 to 7.00 |  | 
22 | Oc1cc(-c2ccccc2)nn1-c1cc(N2CCOCC2)n2nc(-c3ccncc3)nc2n1 |  |  | 6.16 | 
23 | Cn1c(-c2ccncc2)nc2c(N3CCOCC3)ncnc21 [drawing 169] |  |  |  | pIC50 [1, 4]: 8.15; pIC50 [2]: 5.95
24 | Cc1cccc(/C=N/Nc2cc(N3CC4CC3CO4)n3nc(-c4ccncc4)cc3n2)c1 (centres unmarked) |  |  | 6.35 | pIC50 [1, 4]: 8.52
25 | c1ccc(-c2ccnc(-c3cc(N4CCOCC4)nc(OCc4ccncc4)n3)n2)cc1 |  |  | 5.84 | 
26 | c1ccc(-c2cccc(-c3nc(N4CCOCC4)n4nc(-c5ccncc5)cc4n3)n2)cc1 |  |  | 6.64 | pIC50 [1, 4]: 7.85
27 | Cn1c(-c2ccncc2)nc2c(N3CCOCC3)nc(-n3ccc(-c4cccc(F)c4)n3)nc21 [Compound 28] | 7.00 to 8.00 | 7.00 to 8.00 |  | 
28 | Cc1cccc(/C=N/Nc2nc(N3CCOCC3)c3nc(-c4ccncc4)n(C)c3n2)c1 [Compound 118] | 7.00 to 8.00 | 7.00 to 8.00 |  | 
